Where two headings read alike, the source gives them in different places.
Tests used:
[1] = target: T1, ntd-HSP90 mutant A101C/N105C tagged with CLaNP-5 (Homo sapiens, UniProt P07900, A101C/N105C); assay: NMR methyl 13C-1H HSQC titration fitted with TITAN, 1:1 binding model; settings: mutant 101C/105C
T1 construct: Three double cysteine mutants of the ntd-HSP90 were designed on the surface of the protein; CLaNP-5 (chemical lanthanoid chelate with Lu3+ or Yb3+, attached to the two engineered Cys); made in house
Experimental: (§1) Three double cysteine mutants of the ntd-HSP90 were designed on the surface of the protein, S50C/D54C, A101C/N105C and T149C/I187C (Lescanne et al. [2017]). […] The protein was produced labelled with Leu-δ1-δ2/Val-γ1-γ2-[^13CH3] and purified and tagged with CLaNP5 according to a published protocol (Lescanne et al. [2017]). CLaNP-5 was synthesized as described before (Keizers et al. [2007], [2008]).
(§2) Ntd-HSP90 in 50 mM Tris-HCl and 50 mM NaCl buffer, pH 7.7, was titrated with 4-(2-Fluorophenyl)-2-pyrimidinamine, 1, (Fig. 1), a 189 Da known ligand of ntd-HSP90 that was kindly provided by AstraZeneca (Göteborg, Sweden). Titrations were performed with three ntd-HSP90 mutants, S50C/D54C, A101C/N105C and T149C/I187C tagged with Lu^3+-CLaNP-5 or Yb^3+-CLaNP-5. The concentrations of S50C/D54C, A101C/N105C T149C/I187C were 20, 103 and 65 µM, respectively, for both diamagnetic and paramagnetic forms of the protein. Concentrations (µM) of 1 for titrations with S50C/D54C, A101C/N105C and T149C/I187C were [0, 39, 59, 88, 132, 198, 296, 444, 667, 1000], [0, 20, 40, 121, 364, 1111] and [0, 40, 89, 200, 442, 665, 1008, 1897], respectively. The NMR sample volume was 595 µL for all samples, and dilution was neglected, because the biggest volume of ligand solution added was < 5 µL. ^13C-^1H HSQC (Palmer et al. [1991]; Kay et al. [1992]; Schleucher et al. [1994]) spectra were acquired at each titration point, on a Bruker Avance III 800 MHz spectrometer, equipped with a cryogenically cooled TXI-probe head, operating at 298 K. Spectra were processed with nmrpipe (Delaglio et al. [1995]) using the exponential EM apodization function for analysis with TITAN (Waudby et al. [2016]). A similar titration was performed with WT ntd-HSP90 observing the amide groups. Average CSP were calculated as (ΔH^2 + (ΔC/10)^2)^0.5 for methyl groups and (ΔH^2 + (ΔN/6)^2)^0.5 for amides. PCS were measured using ^1H and for calculations the geometrical average of the proton coordinates in methyl groups were used.
(§3) The dissociation constant KD, as well as the dissociation rate constant (kOFF) were calculated with TITAN software (Waudby et al. [2016]) using a 1:1 binding model (A + B ⇆ A − B). TITAN fits both the equilibrium constant (KD) and the dissociation rate constant (kOFF) on the basis of the CSP and line broadening. A global fit of the resonances of five methyl groups (Table S1) was performed and then one at the time was taken out and the fit repeated. The WT KD was calculated using a titration performed on the ^15N labelled protein, on the basis of four amide protons (Table S1). The ranges of values obtained in this way are reported in Table 1 and provide a more realistic error range than the fit error. […] For these two mutants, a 50 µM variation of the KD results in a change of the extrapolated CSP of 0.01 ppm at most, half the error used for the further calculations. For mutant 149C/187C a KD of 50 µM was used to extrapolate the CSP.

[2] = target: T2, ntd-HSP90 mutant T149C/I187C tagged with CLaNP-5 (Homo sapiens, UniProt P07900, I187C/T149C); assay: as above; settings: mutant 149C/187C
T2 construct: Three double cysteine mutants of the ntd-HSP90 were designed on the surface of the protein; CLaNP-5 (chemical lanthanoid chelate with Lu3+ or Yb3+, attached to the two engineered Cys); made in house
Experimental: as §1, §2, §3

[3] = target: T3, ntd-HSP90 mutant S50C/D54C tagged with CLaNP-5 (Homo sapiens, UniProt P07900, D54C/S50C); assay: as above; settings: mutant 50C/54C
T3 construct: Three double cysteine mutants of the ntd-HSP90 were designed on the surface of the protein; CLaNP-5 (chemical lanthanoid chelate with Lu3+ or Yb3+, attached to the two engineered Cys); made in house
Experimental: as §1, §2, §3

WT ntd-HSP90 = target: T4, WT ntd-HSP90 (Homo sapiens, UniProt P07900); assay: NMR titration (15N-labelled protein, amide groups) fitted with TITAN, 1:1 binding model; settings: four amide protons, range of values from repeated global fits, 298 K, pH 7.7
T4 construct: made in house
Experimental: Ntd-HSP90 in 50 mM Tris-HCl and 50 mM NaCl buffer, pH 7.7, was titrated with 4-(2-Fluorophenyl)-2-pyrimidinamine, 1, (Fig. 1), a 189 Da known ligand of ntd-HSP90 that was kindly provided by AstraZeneca (Göteborg, Sweden). Titrations were performed with three ntd-HSP90 mutants, S50C/D54C, A101C/N105C and T149C/I187C tagged with Lu^3+-CLaNP-5 or Yb^3+-CLaNP-5. The concentrations of S50C/D54C, A101C/N105C T149C/I187C were 20, 103 and 65 µM, respectively, for both diamagnetic and paramagnetic forms of the protein. Concentrations (µM) of 1 for titrations with S50C/D54C, A101C/N105C and T149C/I187C were [0, 39, 59, 88, 132, 198, 296, 444, 667, 1000], [0, 20, 40, 121, 364, 1111] and [0, 40, 89, 200, 442, 665, 1008, 1897], respectively. […] Average CSP were calculated as (ΔH^2 + (ΔC/10)^2)^0.5 for methyl groups and (ΔH^2 + (ΔN/6)^2)^0.5 for amides. PCS were measured using ^1H and for calculations the geometrical average of the proton coordinates in methyl groups were used.
The dissociation constant KD, as well as the dissociation rate constant (kOFF) were calculated with TITAN software (Waudby et al. [2016]) using a 1:1 binding model (A + B ⇆ A − B). […] The WT KD was calculated using a titration performed on the ^15N labelled protein, on the basis of four amide protons (Table S1). […]

[4] = CLaNP-5 tagged, five methyl groups, range of values from repeated global fits, 298 K, pH 7.7
[5] = CLaNP-5 tagged, five methyl groups, range of values from repeated global fits, 298 K, pH 7.7, read-out: KD
[6] = single value used to extrapolate CSP, read-out: KD used for the calculation of the 100% bound state CSP

koff [1, 4]: 1080 to 1300 s⁻¹
Kd [1, 5]: 140 to 171 µM
Kd [1, 6]: 150 µM
koff [2, 4]: 1300 to 1900 s⁻¹
Kd [2, 5]: 41 to 45 µM
Kd ([2]; single value used to extrapolate CSP, read-out: KD used to extrapolate the CSP): 50 µM
koff [3, 4]: 1500 to 2300 s⁻¹
Kd [3, 5]: 195 to 238 µM
Kd [3, 6]: 200 µM
Kd (WT ntd-HSP90): 160 to 220 µM
koff (WT ntd-HSP90): 1400 to 1800 s⁻¹
Compound: Nc1nccc(-c2ccccc2F)n1 [compound 1, 4-(2-Fluorophenyl)-2-pyrimidinamine]
